23 compounds from patent US8372391B2, “Biofungicidal composition for controlling phytopathogenic fungi” (priority 2009, dated 2013) can be followed below.

The test relates to Serratia plymuthica CCGG2742. Briefly: Susceptibility of Serratia plymuthica CCGG2742 to various antibiotics. The test is classed as cell-based. More on the design: key: sensibility (S); resistance (R).

As for `NCC[C@H](O)C(=O)N[C@@H]1C[C@H](N)[C@@H](O[C@H]2O[C@H](CN)[C@@H](O)[C@H](O)[C@H]2O)[C@H](O)[C@H]1O[C@H]1O[C@H](CO)[C@@H](O)[C@H](N)[C@H]1O` [Amikacine], the “Susceptibility of Serratia plymuthica CCGG2742 to antibiotic” value (shortened to “Susceptibility”) (antibiotic 30 μg) is recorded as “S”.

On to `CC1(C)S[C@@H]2[C@H](NC(=O)[C@H](N)c3ccc(O)cc3)C(=O)N2[C@H]1C(=O)O` [Amoxicillin], for which the “Susceptibility” value (antibiotic 25 μg) was “R”.

In the case of `CC1(C)S[C@@H]2[C@H](NC(=O)[C@H](N)c3ccccc3)C(=O)N2[C@H]1C(=O)O` [Ampicillin], the “Susceptibility” value (antibiotic 10 μg) was “R”.

`C[C@H]1[C@H](NC(=O)/C(=N\OC(C)(C)C(=O)O)c2csc(N)n2)C(=O)N1S(=O)(=O)O` [Aztreonam]: the “Susceptibility” value (antibiotic 30 μg) is “S”.

On to `CC1(C)S[C@@H]2[C@H](NC(=O)C(C(=O)O)c3ccccc3)C(=O)N2[C@H]1C(=O)O` (some centres unmarked) [Carbenicillin], for which, under “antibiotic 100 μg”, the “Susceptibility” value is given as “S”.

In the case of `CC1=C(C(=O)O)N2C(=O)[C@@H](NC(=O)[C@H](N)c3ccc(O)cc3)[C@H]2SC1` [Cefadroxil], for the setting “antibiotic 30 μg”, the “Susceptibility” value was “R”.

With `CC(=O)OCC1=C(C(=O)O)N2C(=O)[C@@H](NC(=O)Cc3cccs3)[C@H]2SC1` [Cefalotin], under “antibiotic 30 μg”, the “Susceptibility” value was “R”.

Regarding `Cc1nnc(SCC2=C(C(=O)O)N3C(=O)[C@@H](NC(=O)Cn4cnnn4)[C@H]3SC2)s1` [Cefazolin], the “Susceptibility” value (antibiotic 30 μg) was “R”.

For the compound `CCN1CCN(C(=O)N[C@@H](C(=O)N[C@@H]2C(=O)N3C(C(=O)O)=C(CSc4nnnn4C)CS[C@H]23)c2ccc(O)cc2)C(=O)C1=O` [Cefoperazone], where the note is “antibiotic 75 μg”, the “Susceptibility” value is reported as “S”.

As to `CO/N=C(\C(=O)N[C@@H]1C(=O)N2C(C(=O)O)=C(COC(C)=O)CS[C@H]12)c1csc(N)n1` [Cefotaxime], the “Susceptibility” value (antibiotic 30 μg) is given as “S”.

Regarding `CC(C)(O/N=C(\C(=O)N[C@@H]1C(=O)N2C(C(=O)[O-])=C(C[n+]3ccccc3)CS[C@H]12)c1csc(N)n1)C(=O)O` [Ceftazidime], the “Susceptibility” value (antibiotic 30 μg) is recorded as “S”.

`CO/N=C(\C(=O)N[C@@H]1C(=O)N2C(C(=O)O)=C(CSc3nc(=O)c(=O)[nH]n3C)CS[C@H]12)c1csc(N)n1` [Ceftriaxone]: the “Susceptibility” value (antibiotic 30 μg) is “S”.

As for `CO/N=C(\C(=O)N[C@@H]1C(=O)N2C(C(=O)O)=C(COC(N)=O)CS[C@H]12)c1ccco1` [Cefuroxime], under “antibiotic 30 μg”, the “Susceptibility” value was “R”.

Turning to `O=C(N[C@H](CO)[C@H](O)c1ccc([N+](=O)[O-])cc1)C(Cl)Cl` [Chloramphenicol], the “Susceptibility” value (antibiotic 30 μg) is reported as “S”.

For `CCC[C@@H]1C[C@@H](C(=O)N[C@@H]([C@H]2O[C@H](SC)[C@H](O)[C@@H](O)[C@H]2O)[C@H](C)Cl)N(C)C1` [Clindamycin], the “Susceptibility” value (antibiotic 2 μg) is “R”.

Turning to `CC[C@H]1OC(=O)[C@H](C)[C@@H](O[C@H]2C[C@@](C)(OC)[C@@H](O)[C@H](C)O2)[C@H](C)[C@@H](O[C@@H]2O[C@H](C)C[C@H](N(C)C)[C@H]2O)[C@](C)(O)C[C@@H](C)C(=O)[C@H](C)[C@@H](O)[C@]1(C)O` [Erythromycin], the “Susceptibility” value (antibiotic 15 μg) is “R”.

As to `O=C1CN(/N=C/c2ccc([N+](=O)[O-])o2)C(=O)N1` [Nitrofurantoin], the “Susceptibility” value (antibiotic 300 μg) is “R”.

As for `CO[C@@H]1[C@@H](OC(N)=O)[C@@H](O)[C@H](Oc2ccc3c(O)c(NC(=O)c4ccc(O)c(CC=C(C)C)c4)c(=O)oc3c2C)OC1(C)C` [Novobiocin], where the note is “antibiotic 5 μg”, the “Susceptibility” value is given as “R”.

In the case of `Cc1onc(-c2ccccc2)c1C(=O)N[C@@H]1C(=O)N2[C@@H]1SC(C)(C)[C@@H]2C(=O)O` [Oxacillin], the “Susceptibility” value (antibiotic 1 μg) was “R”.

Consider `CN(C)[C@@H]1C(O)=C(C(N)=O)C(=O)[C@@]2(O)C(O)=C3C(=O)c4c(O)cccc4[C@@](C)(O)[C@H]3C[C@@H]12` [Tetracycline], for which the “Susceptibility” value (antibiotic 30 μg) is given as “R”.

In the case of `CN[C@H](CC(C)C)C(=O)N[C@H]1C(=O)N[C@@H](CC(N)=O)C(=O)N[C@H]2C(=O)N[C@H]3C(=O)N[C@H](C(=O)N[C@H](C(=O)O)c4cc(O)cc(O)c4-c4cc3ccc4O)[C@H](O)c3ccc(c(Cl)c3)Oc3cc2cc(c3O[C@@H]2O[C@H](CO)[C@@H](O)[C@H](O)[C@H]2O[C@H]2C[C@](C)(N)[C@H](O)[C@H](C)O2)Oc2ccc(cc2Cl)[C@H]1O` [Vancomycin], the “Susceptibility” value (antibiotic 30 μg) is “R”.

In the case of Gentamicin, where the note is “antibiotic 10 μg”, the “Susceptibility” value is reported as “S”.

With Penicillin, the “Susceptibility” value (antibiotic 10 U) is on record as “R”.
